Tested on: HCV 1b genotype
Assay: HCV replicon assay, 1b genotype
Assay type: cell-based
Details: Hepatitis C virus; HCV 1b genotype replicon; EC50 = effective 50% inhibitory concentration
Method: An HCV Replion assay was utilized in the present disclosure, and was prepared, conducted and validated as described in commonly owned PCT/US2006/022197 and in O'Boyle et. al. Antimicrob Agents Chemother. 2005 April; 49(4):1346-53. Assay methods incorporating luciferase reporters have also been used as described (Apath.com).
HCV-neo replicon cells and replicon cells containing mutations in the NS5A region were used to test the currently described family of compounds. The compounds were determined to have more than 10-fold less inhibitory activity on cells containing mutations than wild-type cells. Thus, the compounds of the present disclosure can be effective in inhibiting the function of the HCV NS5A protein and are understood to be as effective in combinations as previously described in application PCT/US2006/022197 and commonly owned WO/04014852. Further, the compounds of the present disclosure can be effective against the HCV 1b genotype. It should also be understood that the compounds of the present disclosure can inhibit multiple genotypes of HCV. […] In one embodiment, compounds of the present disclosure are inhibitory versus 1a, 1b, 2a, 2b, 3a, 4a, and 5a genotypes.

`COC(=O)N[C@@H](C(=O)N1CCC[C@H]1c1ncc(-c2nc3cc4sc(-c5cnc([C@@H]6CCCN6C(=O)[C@H](NC(=O)OC)C(C)C)[nH]5)nc4cc3s2)[nH]1)C(C)C` [Example 3, Methyl ((1R)-1-(((2S)-2-(4-(6-(2-((2S)-1-((2R)-2-((methoxycarbonyl)amino)-3-methylbutanoyl)-2-pyrrolidinyl)-1H-imidazol-4-yl)[1,3]thiazolo[5,4-f][1,3]benzothiazol-2-yl)-1H-imidazol-2-yl)-1-pyrrolidinyl)carbonyl)-2-methylpropyl)carbamate, bistrifluoracetate] showed an EC50 of 350 nM.
`COC(=O)N[C@@H](C(=O)N1CCC[C@H]1c1ncc(-c2nc3cc4sc(-c5cnc([C@@H]6CCCN6C(=O)[C@H](NC(=O)OC)c6ccccc6)[nH]5)nc4cc3s2)[nH]1)c1ccccc1` [Example 2, Dimethyl ([1,3]thiazolo[5,4-f][1,3]benzothiazole-2,6-diylbis(1H-imidazole-4,2-diyl(2S)-2,1-pyrrolidinediyl((1R)-2-oxo-1-phenyl-2,1-ethanediyl)))biscarbamate, bistrifluoracetate] was tested, and the EC50 was 0.025 nM.
In the case of `COC(=O)N[C@H](C(=O)N1CCC[C@H]1c1ncc(-c2nc3cc4sc(-c5cnc([C@@H]6CCCN6C(=O)[C@@H](NC(=O)OC)C(C)C)[nH]5)nc4cc3s2)[nH]1)C(C)C` [Example 1, Methyl ((1S)-1-(((2S)-2-(4-(6-(2-((28)-1-((2S)-2-((methoxycarbonyl)amino)-3-methylbutanoyl)-2-pyrrolidinyl)-1H-imidazol-4-yl)[1,3]thiazolo[5,4-f][1,3]benzothiazol-2-yl)-1H-imidazol-2-yl)-1-pyrrolidinyl)carbonyl)-2-methylpropyl)carbamate, bistrifluoracetate], the EC50 is reported as 0.034 nM.

— patent US8143414B2, “Hepatitis C virus inhibitors” (Bristol-Myers Squibb Company, priority 2009, dated 2012)
